#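 Method: 48-hour compound exposure of cells in 96-well plates, five concentrations, linear interpolation of endpoints. GI50: concentration for 50% inhibition of growth.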 Active and inactive are the calls of the source. No stated cut-off is given here; in the data, active = GI50 up to about 1.1 µM and inactive = higher.
# Legend:
# Experiment in all cases: NCI-60 cell line screen, 48 h
# HCT-116 = system: HCT-116
# HL-60 = system: HL-60
# SF-295 = system: SF-295
# OVCAR-4 = system: OVCAR-4
# SF-539 = system: SF-539
# K562 = system: K562
# CCRF-CEM = system: CCRF-CEM
# EKVX = system: EKVX
# A549 = system: A549
# TK-10 = system: TK-10
# DU-145 = system: DU-145
# CAKI-1 = system: CAKI-1
# HOP-92 = system: HOP-92
# T47D = system: T47D
# HCT-15 = system: HCT-15
# COLO 205 = system: COLO 205
# HOP-62 = system: HOP-62
# SNB-19 = system: SNB-19
# NCI-H23 = system: NCI-H23
# HCC 2998 = system: HCC 2998
Structure (SMILES),GI50 (HCT-116),GI50 (HL-60),GI50 (SF-295),GI50 (OVCAR-4),GI50 (SF-539),GI50 (K562),GI50 (CCRF-CEM),GI50 (EKVX),GI50 (A549),GI50 (TK-10),GI50 (DU-145),GI50 (CAKI-1),GI50 (HOP-92),GI50 (T47D),GI50 (HCT-15),GI50 (COLO 205),GI50 (HOP-62),GI50 (SNB-19),GI50 (NCI-H23),GI50 (HCC 2998)
CN1CCN(CC(=O)N2c3ccccc3Sc3cc4ccccc4cc32)CC1,10.1 µM (inactive),0.394 µM (active),14.7 µM (inactive),15.5 µM (inactive),15.6 µM (inactive),15.9 µM (inactive),26 µM (inactive),11.8 µM (inactive),15.3 µM (inactive),15.7 µM (inactive),15.9 µM (inactive),13.1 µM (inactive),10.6 µM (inactive),19.7 µM (inactive),16.7 µM,13.9 µM (inactive),18.7 µM (inactive),18.4 µM (inactive),19.7 µM (inactive),
Cn1c(=O)c2nc(SCc3ccccn3)[nH]c2n(C)c1=S,> 100 µM (inactive),> 100 µM (inactive),34.2 µM (inactive),> 100 µM (inactive),34.1 µM (inactive),> 100 µM (inactive),> 100 µM (inactive),74 µM (inactive),> 100 µM (inactive),86.7 µM (inactive),> 100 µM (inactive),> 100 µM (inactive),39.2 µM (inactive),66.8 µM (inactive),> 100 µM,> 100 µM (inactive),44 µM (inactive),56 µM (inactive),> 100 µM (inactive),
Cc1nccn1S(=O)(=O)c1ccc(Br)cc1Br,31.6 µM (inactive),19.1 µM (inactive),27.7 µM (inactive),29.5 µM (inactive),22.6 µM (inactive),29.1 µM (inactive),26.5 µM (inactive),26.9 µM (inactive),25.9 µM (inactive),38.6 µM (inactive),42.9 µM (inactive),30 µM (inactive),26.7 µM (inactive),22.6 µM (inactive),28.4 µM,18.6 µM (inactive),,25.9 µM (inactive),36.1 µM (inactive),
CC(C)(C)c1cc(C(C)(C)C)c2sc(=S)oc2c1O,6.25 µM (inactive),7.45 µM (inactive),10.5 µM (inactive),11.7 µM (inactive),2.39 µM (inactive),15 µM (inactive),3.76 µM (inactive),3.85 µM (inactive),6.55 µM (inactive),1.18 µM (inactive),11.7 µM (inactive),5.64 µM (inactive),14.1 µM (inactive),5.19 µM (inactive),4.98 µM,14.5 µM (inactive),14.9 µM (inactive),12.7 µM (inactive),5.37 µM (inactive),
O=C1N2CCc3c([nH]c4ccccc34)C23CC2CCCC12S3 (configuration not stated),20.6 µM (inactive),> 50 µM (inactive),20.3 µM (inactive),41 µM (inactive),> 50 µM (inactive),> 50 µM (inactive),,47.2 µM (inactive),17.7 µM (inactive),> 50 µM (inactive),39.4 µM (inactive),> 50 µM (inactive),29 µM (inactive),20.5 µM (inactive),18.1 µM,26.7 µM (inactive),> 50 µM (inactive),> 50 µM (inactive),20.1 µM (inactive),
O=C1c2ccccc2C(=O)c2c(NCC(O)CO)ccc(NCC(O)CO)c21 (configuration not stated),67 µM (inactive),63 µM (inactive),,> 100 µM (inactive),62.1 µM (inactive),35.2 µM (inactive),41.4 µM (inactive),> 100 µM (inactive),> 100 µM (inactive),72.4 µM (inactive),38.6 µM (inactive),56.6 µM (inactive),,> 100 µM (inactive),43.7 µM,37.2 µM (inactive),61.1 µM (inactive),43.2 µM (inactive),96.2 µM (inactive),72.6 µM (inactive)
CSc1c([S+](C)[O-])c2ccccc2n1C (configuration not stated),> 100 µM (inactive),> 100 µM (inactive),> 100 µM (inactive),> 100 µM (inactive),> 100 µM (inactive),> 100 µM (inactive),> 100 µM (inactive),> 100 µM (inactive),> 100 µM (inactive),> 100 µM (inactive),> 100 µM (inactive),> 100 µM (inactive),,> 100 µM (inactive),> 100 µM,> 100 µM (inactive),> 100 µM (inactive),> 100 µM (inactive),> 100 µM (inactive),> 100 µM (inactive)
Cc1cn2c(/C=C3/C(=O)Nc4ccccc43)c(C)nc2s1,0.867 µM (active),0.321 µM (active),0.652 µM (active),,1.33 µM (inactive),0.431 µM (active),1.03 µM (active),6.11 µM (inactive),2.02 µM (inactive),3.78 µM (inactive),3.89 µM (inactive),3.07 µM (inactive),14.4 µM (inactive),0.665 µM (active),0.679 µM,0.433 µM (active),3.79 µM (inactive),3.32 µM (inactive),4.19 µM (inactive),1.84 µM (inactive)
CNC(=O)CCCNC(=O)CCCC(=O)OC,> 100 µM (inactive),> 100 µM (inactive),> 100 µM (inactive),,> 100 µM (inactive),> 100 µM (inactive),> 100 µM (inactive),> 100 µM (inactive),> 100 µM (inactive),> 100 µM (inactive),> 100 µM (inactive),> 100 µM (inactive),> 100 µM (inactive),> 100 µM (inactive),> 100 µM,> 100 µM (inactive),> 100 µM (inactive),> 100 µM (inactive),> 100 µM (inactive),> 100 µM (inactive)
CC(=O)N(CCc1ccccc1)C(C#N)c1ccccc1 (configuration not stated),> 100 µM (inactive),> 100 µM (inactive),> 100 µM (inactive),> 100 µM (inactive),> 100 µM (inactive),> 100 µM (inactive),> 100 µM (inactive),> 100 µM (inactive),> 100 µM (inactive),> 100 µM (inactive),> 100 µM (inactive),> 100 µM (inactive),,> 100 µM (inactive),> 100 µM,> 100 µM (inactive),> 100 µM (inactive),> 100 µM (inactive),> 100 µM (inactive),> 100 µM (inactive)
C1=N\c2ccc(cc2)-c2ccc(cc2)/N=C\c2ccc(cc2)OCc2cccc(n2)COc2ccc/1cc2,> 100 µM (inactive),> 100 µM (inactive),79.4 µM (inactive),> 100 µM (inactive),> 100 µM (inactive),> 100 µM (inactive),97.7 µM (inactive),45.8 µM (inactive),> 100 µM (inactive),,> 100 µM (inactive),> 100 µM (inactive),> 100 µM (inactive),> 100 µM (inactive),> 100 µM,> 100 µM (inactive),27.3 µM (inactive),38.9 µM (inactive),> 100 µM (inactive),
OC(CN(CCCl)CCCl)C(O)C(O)C(O)CN(CCCl)CCCl (configuration not stated),> 100 µM (inactive),5.04 µM (inactive),,,52.4 µM (inactive),> 100 µM (inactive),37.6 µM (inactive),> 100 µM (inactive),> 100 µM (inactive),> 100 µM (inactive),71.9 µM (inactive),> 100 µM (inactive),> 100 µM (inactive),30.5 µM (inactive),> 100 µM,84.7 µM (inactive),> 100 µM (inactive),> 100 µM (inactive),63.1 µM (inactive),> 100 µM (inactive)
C=CCN1C[C@@H](C)N([C@@H](c2ccccc2)c2ccc(C(=O)N(CC)CC)cc2)C[C@@H]1C,> 100 µM (inactive),> 100 µM (inactive),> 100 µM (inactive),> 100 µM (inactive),> 100 µM (inactive),,,> 100 µM (inactive),> 100 µM (inactive),,> 100 µM (inactive),> 100 µM (inactive),8.43 µM (inactive),65.8 µM (inactive),> 100 µM,> 100 µM (inactive),> 100 µM (inactive),> 100 µM (inactive),> 100 µM (inactive),
Cc1cc(N(CCC#N)CCC#N)ccc1C(/N=N/c1ccc([N+](=O)[O-])cc1)=N\NC(=O)c1ccccc1,31.8 µM (inactive),32.1 µM (inactive),19.5 µM (inactive),61 µM (inactive),15 µM (inactive),22.9 µM (inactive),41.4 µM (inactive),63.4 µM (inactive),57.1 µM (inactive),61.9 µM (inactive),48 µM (inactive),72.1 µM (inactive),,27 µM (inactive),30.1 µM,35.2 µM (inactive),87.5 µM (inactive),40.6 µM (inactive),30.7 µM (inactive),40.5 µM (inactive)
CC1OC(OC2C(CO)OC(O[C@H]3CC[C@@]4(C)C(=CC[C@H]5[C@@H]6C[C@@H]7O[C@](O)(CC[C@@H](C)COC8OC(CO)C(O)C(O)C8O)[C@@H](C)[C@@H]7[C@@]6(C)CC[C@@H]54)C3)C(OC3OC(C)C(O)C(O)C3O)C2O)C(O)C(O)C1O (some centres not stated),2.08 µM (inactive),2.13 µM (inactive),3.91 µM (inactive),6.73 µM (inactive),1.95 µM (inactive),5.07 µM (inactive),2.3 µM (inactive),9.38 µM (inactive),1.57 µM (inactive),8.45 µM (inactive),2.3 µM (inactive),2.47 µM (inactive),,4.05 µM (inactive),1.89 µM,2.56 µM (inactive),2.16 µM (inactive),2.23 µM (inactive),3.55 µM (inactive),2.9 µM (inactive)
